# Measured values published in patent EP0745599A2, “1-(3-Heterocyclylphenyl)-s-triazine-2,4,6-oxo or thiotrione herbicidal agents” (American Cyanamid Company, priority 1995, dated 1996).
# Tests used:
# Assay type in all cases: in vivo
# Settings in all cases: rated four to five weeks after treatment
# [1] = tested on: TRITICUM AESTIVUM, CV. APOLLO; test: Preemergence herbicidal evaluation, TRZAWO (Wheat, Winter, CV. APOLLO)
# Source text: (§1) Results of herbicide evaluation are expressed on a rating scale (0-9). The scale is based upon a visual observation of plant stand, vigor, malformation, size, chlorosis and overall plant appearance as compared with a control.
# (§2) The preemergence herbicidal activity of the test compounds of the present invention is exemplified by the following tests in which the seeds of a variety of monocotyledonous and dicotyledonous plants are separately mixed with potting soil and planted on top of approximately one inch of soil in separate pint cups. After planting, the cups are sprayed with the selected aqueous acetone solution containing test compound in sufficient quantity to provide the equivalent of about 0.125 to 0.50 kg per hectare of test compound per cup. The treated cups are then placed on greenhouse benches, watered and cared for in accordance with conventional greenhouse procedures. From four to five weeks after treatment, the tests are terminated and each cup is examined and rated according to the rating system provided in Example 42.
# [2] = tested on: GLYCINE MAX(L)MERR. CV. WILLIAMS; test: Preemergence herbicidal evaluation, GLXMAW (Soybean, Williams)
# Source text: as §1, §2
# IPOMOEA SPP. = test: Preemergence herbicidal evaluation, IPOSS (Morningglory Spp.)
# Source text: as §1, §2
# CHENOPODIUM ALBUM, L. = test: Preemergence herbicidal evaluation, CHEAL (Lambsquarters, Common)
# Source text: as §1, §2
# [3] = tested on: SETARIA VIRIDIS, (L) BEAU; test: Preemergence herbicidal evaluation, SETVI (Foxtail, Green)
# Source text: as §1, §2
# [4] = tested on: ABUTILON THEOPHRASTI, MEDIC.; test: Postemergence herbicidal evaluation, ABUTH (Velvetleaf)
# Protocol: (§3) In the tests, seedling plants are grown in jiffy flats for about two weeks. The test compounds are dispersed in 50/50 acetone/water mixtures containing 0.5% TWEEN®20, a polyoxyethylene sorbitan monolaurate surfactant of Atlas Chemical Industries, in sufficient quantities to provide the equivalent of about 0.125 kg to 0.500 kg per hectare of active compound when applied to the plants through a spray nozzle operating at 40 psi for a predetermined time. After spraying, the plants are placed on greenhouse benches and are cared for in the usual manner, commensurate with conventional greenhouse practices. From four to five weeks after treatment, the seedling plants are examined and rated according to the rating system set forth below. Where more than one test is involved for a given compound, the data are averaged.
# as §1
# [5] = tested on: ECHINOCHLOA CRUS-GALLI, (L) BEAU; test: Preemergence herbicidal evaluation, ECHCG (Barnyardgrass)
# Source text: as §1, §2
# [6] = tested on: SETARIA VIRIDIS, (L) BEAU; test: Postemergence herbicidal evaluation, SETVI (Foxtail, Green)
# Protocol: as §3, §1
# CASSIA OBTUSIFOLIA, L. [7] = test: Preemergence herbicidal evaluation, CASOB (Sicklepod)
# Source text: as §1, §2
# [8] = tested on: AMBROSIA ARTEMISIIFOLIA, L.; test: Preemergence herbicidal evaluation, AMBEL (Ragweed, Common)
# Source text: as §1, §2
# [9] = tested on: ABUTILON THEOPHRASTI, MEDIC.; test: Preemergence herbicidal evaluation, ABUTH (Velvetleaf)
# Source text: as §1, §2
# CASSIA OBTUSIFOLIA, L. [10] = test: Postemergence herbicidal evaluation, CASOB (Sicklepod)
# Protocol: as §3, §1
# ZEA MAYS L. = test: Preemergence herbicidal evaluation, ZEAMX (Corn, Field)
# Source text: as §1, §2
# [11] = tested on: ECHINOCHLOA CRUS-GALLI, (L) BEAU; test: Postemergence herbicidal evaluation, ECHCG (Barnyardgrass)
# Protocol: as §3, §1
# [12] = tested on: ORYZA SATIVA, L. TEBONNET; test: Preemergence herbicidal evaluation, ORYSAT (Rice, Tebonnet)
# Source text: as §1, §2
# GALIUM APARINE = test: Preemergence herbicidal evaluation, GALAP (Galium)
# Source text: as §1, §2
compound,measurement,setting,value
"Cn1c(=O)n(CC(=O)OC(C)(C)C)c(=O)n(-c2cc(N3C(=O)C4=C(CCCC4)C3=O)c(F)cc2Cl)c1=O [Compound 2, Tert-butyl 3-[2-chloro-5-(1-cyclohexene-1,2-dicarboximido)-4-fluorophenyl]tetrahydro-5-methyl-2,4,6-trioxo-s-triazine-1(2H)-acetate]",Herbicide rating (0-9) TRZAWO,[1]; 0.125 kg/ha,1.0
same,Herbicide rating (0-9) TRZAWO,[1]; 0.250 kg/ha,1.0
same,Herbicide rating (0-9) TRZAWO,[1]; 0.500 kg/ha,1.0
same,Herbicide rating (0-9) GLXMAW,[2]; 0.125 kg/ha,0.0
same,Herbicide rating (0-9) GLXMAW,[2]; 0.250 kg/ha,0.0
same,Herbicide rating (0-9) GLXMAW,[2]; 0.500 kg/ha,0.0
same,Herbicide rating (0-9) IPOSS,IPOMOEA SPP.; 0.125 kg/ha,6.0
same,Herbicide rating (0-9) IPOSS,IPOMOEA SPP.; 0.250 kg/ha,6.0
same,Herbicide rating (0-9) IPOSS,IPOMOEA SPP.; 0.500 kg/ha,6.0
same,Herbicide rating (0-9) CHEAL,"CHENOPODIUM ALBUM, L.; 0.125 kg/ha",9.0
same,Herbicide rating (0-9) CHEAL,"CHENOPODIUM ALBUM, L.; 0.250 kg/ha",9.0
same,Herbicide rating (0-9) CHEAL,"CHENOPODIUM ALBUM, L.; 0.500 kg/ha",9.0
same,Herbicide rating (0-9) SETVI,[3]; 0.125 kg/ha,0.0
same,Herbicide rating (0-9) SETVI,[3]; 0.250 kg/ha,0.0
same,Herbicide rating (0-9) SETVI,[3]; 0.500 kg/ha,0.0
same,Herbicide rating (0-9) ABUTH,[4]; 0.125 kg/ha,9.0
same,Herbicide rating (0-9) ABUTH,[4]; 0.250 kg/ha,9.0
same,Herbicide rating (0-9) ABUTH,[4]; 0.500 kg/ha,9.0
same,Herbicide rating (0-9) ECHCG,[5]; 0.125 kg/ha,0.0
same,Herbicide rating (0-9) ECHCG,[5]; 0.250 kg/ha,0.0
same,Herbicide rating (0-9) ECHCG,[5]; 0.500 kg/ha,0.0
"CCOC(=O)Cn1c(=O)[nH]c(=O)n(-c2ccc(F)c(N3C(=O)C4=C(CCCC4)C3=O)c2)c1=O [Compound 9, Ethyl 3-[3-(1-cyclohexene-1,2-dicarbox-imido)-4-fluorophenyl]tetrahydro-2,4,6-trioxo-s-triazine-1(2H)-acetate]",Herbicide rating (0-9) TRZAWO,[1]; 0.125 kg/ha,0.0
same,Herbicide rating (0-9) TRZAWO,[1]; 0.250 kg/ha,0.0
same,Herbicide rating (0-9) TRZAWO,[1]; 0.500 kg/ha,0.0
same,Herbicide rating (0-9) SETVI,[6]; 0.125 kg/ha,0.0
same,Herbicide rating (0-9) SETVI,[6]; 0.250 kg/ha,0.0
same,Herbicide rating (0-9) SETVI,[6]; 0.500 kg/ha,0.0
same,Herbicide rating (0-9) CASOB,"CASSIA OBTUSIFOLIA, L. [7]; 0.125 kg/ha",0.0
same,Herbicide rating (0-9) CASOB,"CASSIA OBTUSIFOLIA, L. [7]; 0.250 kg/ha",0.0
same,Herbicide rating (0-9) CASOB,"CASSIA OBTUSIFOLIA, L. [7]; 0.500 kg/ha",0.0
same,Herbicide rating (0-9) AMBEL,[8]; 0.125 kg/ha,0.0
same,Herbicide rating (0-9) AMBEL,[8]; 0.250 kg/ha,0.0
same,Herbicide rating (0-9) AMBEL,[8]; 0.500 kg/ha,0.0
same,Herbicide rating (0-9) GLXMAW,[2]; 0.125 kg/ha,0.0
same,Herbicide rating (0-9) GLXMAW,[2]; 0.250 kg/ha,0.0
same,Herbicide rating (0-9) GLXMAW,[2]; 0.500 kg/ha,0.0
same,Herbicide rating (0-9) IPOSS,IPOMOEA SPP.; 0.125 kg/ha,0.0
same,Herbicide rating (0-9) IPOSS,IPOMOEA SPP.; 0.250 kg/ha,0.0
same,Herbicide rating (0-9) IPOSS,IPOMOEA SPP.; 0.500 kg/ha,0.0
same,Herbicide rating (0-9) ABUTH,[9]; 0.125 kg/ha,0.0
same,Herbicide rating (0-9) ABUTH,[9]; 0.250 kg/ha,0.0
same,Herbicide rating (0-9) ABUTH,[9]; 0.500 kg/ha,0.0
same,Herbicide rating (0-9) CASOB,"CASSIA OBTUSIFOLIA, L. [10]; 0.125 kg/ha",0.0
same,Herbicide rating (0-9) CASOB,"CASSIA OBTUSIFOLIA, L. [10]; 0.250 kg/ha",0.0
same,Herbicide rating (0-9) CASOB,"CASSIA OBTUSIFOLIA, L. [10]; 0.500 kg/ha",0.0
same,Herbicide rating (0-9) CHEAL,"CHENOPODIUM ALBUM, L.; 0.125 kg/ha",0.0
same,Herbicide rating (0-9) CHEAL,"CHENOPODIUM ALBUM, L.; 0.250 kg/ha",0.0
same,Herbicide rating (0-9) CHEAL,"CHENOPODIUM ALBUM, L.; 0.500 kg/ha",0.0
same,Herbicide rating (0-9) ZEAMX,ZEA MAYS L.; 0.125 kg/ha,0.0
same,Herbicide rating (0-9) ZEAMX,ZEA MAYS L.; 0.250 kg/ha,0.0
same,Herbicide rating (0-9) ZEAMX,ZEA MAYS L.; 0.500 kg/ha,0.0
same,Herbicide rating (0-9) SETVI,[3]; 0.125 kg/ha,0.0
same,Herbicide rating (0-9) SETVI,[3]; 0.250 kg/ha,0.0
same,Herbicide rating (0-9) SETVI,[3]; 0.500 kg/ha,0.0
same,Herbicide rating (0-9) ECHCG,[5]; 0.125 kg/ha,0.0
same,Herbicide rating (0-9) ECHCG,[5]; 0.250 kg/ha,0.0
same,Herbicide rating (0-9) ECHCG,[5]; 0.500 kg/ha,0.0
same,Herbicide rating (0-9) ECHCG,[11]; 0.125 kg/ha,0.0
same,Herbicide rating (0-9) ECHCG,[11]; 0.250 kg/ha,0.0
same,Herbicide rating (0-9) ECHCG,[11]; 0.500 kg/ha,0.0
same,Herbicide rating (0-9) ORYSAT,[12]; 0.125 kg/ha,0.0
same,Herbicide rating (0-9) ORYSAT,[12]; 0.250 kg/ha,0.0
same,Herbicide rating (0-9) ORYSAT,[12]; 0.500 kg/ha,0.0
same,Herbicide rating (0-9) GALAP,GALIUM APARINE; 0.125 kg/ha,0.0
same,Herbicide rating (0-9) GALAP,GALIUM APARINE; 0.250 kg/ha,0.0
same,Herbicide rating (0-9) GALAP,GALIUM APARINE; 0.500 kg/ha,0.0
